From publication PMC2010101 (British Journal of Cancer, 1979) come the findings set out here.

Molecules are shown by their SMILES. Read-outs that look alike come from different tables or passages of the source.

For the test, the target named is T1, low-Km cAMP phosphodiesterase.
T1 construct: gene Pde3b; not purified, mixture of isoenzymes
The test is described as follows: [3H]cAMP hydrolysis, paper chromatography. In kind it is biochemical, Rattus norvegicus. The note with it: 0.25 µM cAMP, 100 mM Tris-HCl pH 7.5, 4 mM MgCl2, 30 °C, 5 min, crude fraction, read-out: I50.

For the molecule `CN(C)N=Nc1[nH]cnc1C(N)=O` [DTIC, 5-(3,3-dimethyl-1-triazeno)imidazole-4-carboxamide], the IC50 (competitive) worked out at 790 µM.
Consider `Cn1c(=O)c2[nH]cnc2n(C)c1=O` [theophylline], for which the IC50 stood at 350 µM.
